For 1 molecule, inhibition results are on record in ChEMBL document CHEMBL3745672, “Novel compounds reducing IRS-1 serine phosphorylation for treatment of diabetes” (Bioorg Med Chem Lett, 2016).

Molecules are shown by their SMILES. Activity calls are given as the source filed them. No cut-off for these calls is given here.

For orientation: inhibition means how much of the control response was suppressed.

Experiment [1] has as its target Tyrosine-protein kinase ABL1 (Homo sapiens) (UniProt P00519). The experiment in a line: Inhibition of ABL (unknown origin) at 1 uM.
In experiment [2] the target is Tyrosine-protein kinase receptor UFO (Homo sapiens) (UniProt P30530). The experiment in a line: Inhibition of AXL (unknown origin) at 1 uM.
The target in experiment [3] is Serine/threonine-protein kinase B-raf (Homo sapiens) (UniProt P15056). Nature of the experiment: Inhibition of B-RAF (unknown origin) at 1 uM.
The target of experiment [4] is CDK2/Cyclin A2 (Homo sapiens) (UniProt P24941+P20248). The experiment in a line: Inhibition of CDK2/CyclinA (unknown origin) at 1 uM. It counts as protein-complex assay.
The target in experiment [5] is T1, Serine/threonine-protein kinase Chk1 (Homo sapiens) (UniProt O14757).
T1 sequence (whole entry): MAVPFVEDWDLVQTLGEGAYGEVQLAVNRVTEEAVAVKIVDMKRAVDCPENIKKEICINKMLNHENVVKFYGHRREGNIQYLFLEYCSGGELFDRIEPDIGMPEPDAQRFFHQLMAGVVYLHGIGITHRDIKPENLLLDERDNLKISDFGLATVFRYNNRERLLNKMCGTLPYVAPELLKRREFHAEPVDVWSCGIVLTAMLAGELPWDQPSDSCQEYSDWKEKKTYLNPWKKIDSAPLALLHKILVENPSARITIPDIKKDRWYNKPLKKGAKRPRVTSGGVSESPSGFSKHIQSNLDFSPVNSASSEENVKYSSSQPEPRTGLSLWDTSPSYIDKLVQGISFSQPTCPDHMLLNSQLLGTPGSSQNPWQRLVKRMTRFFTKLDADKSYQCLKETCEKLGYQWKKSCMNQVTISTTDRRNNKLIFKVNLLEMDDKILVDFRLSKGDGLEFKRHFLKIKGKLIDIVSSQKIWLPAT
The experiment in a line: Inhibition of CHK1 (unknown origin) at 1 uM.

Experiment [6] has as its target Hepatocyte growth factor receptor (Homo sapiens) (UniProt P08581). The experiment in a line: Inhibition of cMET (unknown origin) at 1 uM.
The target in experiment [7] is Epithelial discoidin domain-containing receptor 1 (Homo sapiens) (UniProt Q08345). Nature of the experiment: Inhibition of DDR1 (unknown origin) at 1 uM.
In experiment [8] the target is Receptor tyrosine-protein kinase erbB-2 (Homo sapiens) (UniProt P04626). The experiment in a line: Inhibition of ERBB2 (unknown origin) at 1 uM.
Experiment [9] addresses Fibroblast growth factor receptor 3 (Homo sapiens) (UniProt P22607). Nature of the experiment: Inhibition of FGFR3 (unknown origin) at 1 uM.
Experiment [10] has as its target Receptor-type tyrosine-protein kinase FLT3 (Homo sapiens) (UniProt P36888). The experiment in a line: Inhibition of FLT3 (unknown origin) at 1 uM.
The target in experiment [11] is Insulin receptor (Homo sapiens) (UniProt P06213). Nature of the experiment: Inhibition of INSR (unknown origin) at 1 uM.
Experiment [12] has as its target T2, Interleukin-1 receptor-associated kinase 4 (Homo sapiens) (UniProt Q9NWZ3).
T2 sequence (whole entry): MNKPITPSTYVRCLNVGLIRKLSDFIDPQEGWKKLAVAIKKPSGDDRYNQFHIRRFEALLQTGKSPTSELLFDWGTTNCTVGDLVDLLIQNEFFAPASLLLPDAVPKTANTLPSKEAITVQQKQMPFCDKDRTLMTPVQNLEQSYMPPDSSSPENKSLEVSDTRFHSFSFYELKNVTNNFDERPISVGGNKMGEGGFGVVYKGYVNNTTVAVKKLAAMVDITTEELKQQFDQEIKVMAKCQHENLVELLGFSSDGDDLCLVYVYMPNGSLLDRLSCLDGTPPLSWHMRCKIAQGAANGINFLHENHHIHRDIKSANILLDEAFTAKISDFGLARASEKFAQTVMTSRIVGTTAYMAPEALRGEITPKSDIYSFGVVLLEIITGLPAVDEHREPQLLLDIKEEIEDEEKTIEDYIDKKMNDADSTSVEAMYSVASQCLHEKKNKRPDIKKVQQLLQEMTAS
Nature of the experiment: Inhibition of IRAK4 (unknown origin) at 1 uM.

The target of experiment [13] is Mitogen-activated protein kinase 8 (Homo sapiens, UniProt P45983). Nature of the experiment: Inhibition of JNK1 (unknown origin) at 1 uM.
Experiment [14] addresses Serine/threonine-protein kinase mTOR (Homo sapiens) (UniProt P42345). Nature of the experiment: Inhibition of mTOR (unknown origin) at 1 uM.
The target in experiment [15] is Serine/threonine-protein kinase pim-1 (Homo sapiens) (UniProt P11309). Nature of the experiment: Inhibition of PIM1 (unknown origin) at 1 uM.
Experiment [16] has as its target Serine/threonine-protein kinase PLK3 (Homo sapiens) (UniProt Q9H4B4). The experiment in a line: Inhibition of PLK3 (unknown origin) at 1 uM.
The target of experiment [17] is Rho-associated protein kinase 2 (Homo sapiens) (UniProt O75116). The experiment in a line: Inhibition of ROCK2 (unknown origin) at 1 uM.
Experiment [18] addresses Tyrosine-protein kinase SYK (Homo sapiens) (UniProt P43405). The experiment in a line: Inhibition of SYK (unknown origin) at 1 uM.
Experiment [19] has as its target Angiopoietin-1 receptor (Homo sapiens) (UniProt Q02763). Nature of the experiment: Inhibition of TIE2 (unknown origin) at 1 uM.
The target in experiment [20] is Vascular endothelial growth factor receptor 2 (Homo sapiens) (UniProt P35968). The experiment in a line: Inhibition of VEGFR2 (unknown origin) at 1 uM.
Experiment [21] concerns the target Mitogen-activated protein kinase 8 (Rattus norvegicus) (UniProt P49185). Nature of the experiment: Inhibition of albumin-conjugated palmitate-induced JNK1/2 phosphorylation assessed as JNK phosphorylation level in rat RINm5F cells incubated for 8 hrs. It counts as cell-based.
For experiment [22] the target is unchanged. The experiment in a line: Inhibition of JNK1 phosphorylation in rat RINm5F cells assessed as suppression of albumin-conjugated palmitate-induced IRS-1 Ser307 phosphorylation incubated for 8 hrs. The class given is cell-based. The settings on record: concentration not given here. Set-up: concentration or dose not given beside the values.

Sequence of Mitogen-activated protein kinase 8 (Rattus norvegicus) (P49185 whole entry): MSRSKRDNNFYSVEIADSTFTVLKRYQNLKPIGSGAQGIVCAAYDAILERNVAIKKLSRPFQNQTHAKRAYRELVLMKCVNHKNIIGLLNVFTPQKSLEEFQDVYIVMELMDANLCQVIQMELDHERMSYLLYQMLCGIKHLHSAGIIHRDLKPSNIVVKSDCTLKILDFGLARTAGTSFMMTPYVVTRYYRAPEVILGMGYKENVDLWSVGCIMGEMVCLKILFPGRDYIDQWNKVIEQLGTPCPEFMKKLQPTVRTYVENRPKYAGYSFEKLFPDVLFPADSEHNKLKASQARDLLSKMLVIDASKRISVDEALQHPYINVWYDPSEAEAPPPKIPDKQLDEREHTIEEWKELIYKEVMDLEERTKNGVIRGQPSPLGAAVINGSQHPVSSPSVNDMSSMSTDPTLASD
Sequence of Receptor-type tyrosine-protein kinase FLT3 (Homo sapiens) (P36888 whole entry): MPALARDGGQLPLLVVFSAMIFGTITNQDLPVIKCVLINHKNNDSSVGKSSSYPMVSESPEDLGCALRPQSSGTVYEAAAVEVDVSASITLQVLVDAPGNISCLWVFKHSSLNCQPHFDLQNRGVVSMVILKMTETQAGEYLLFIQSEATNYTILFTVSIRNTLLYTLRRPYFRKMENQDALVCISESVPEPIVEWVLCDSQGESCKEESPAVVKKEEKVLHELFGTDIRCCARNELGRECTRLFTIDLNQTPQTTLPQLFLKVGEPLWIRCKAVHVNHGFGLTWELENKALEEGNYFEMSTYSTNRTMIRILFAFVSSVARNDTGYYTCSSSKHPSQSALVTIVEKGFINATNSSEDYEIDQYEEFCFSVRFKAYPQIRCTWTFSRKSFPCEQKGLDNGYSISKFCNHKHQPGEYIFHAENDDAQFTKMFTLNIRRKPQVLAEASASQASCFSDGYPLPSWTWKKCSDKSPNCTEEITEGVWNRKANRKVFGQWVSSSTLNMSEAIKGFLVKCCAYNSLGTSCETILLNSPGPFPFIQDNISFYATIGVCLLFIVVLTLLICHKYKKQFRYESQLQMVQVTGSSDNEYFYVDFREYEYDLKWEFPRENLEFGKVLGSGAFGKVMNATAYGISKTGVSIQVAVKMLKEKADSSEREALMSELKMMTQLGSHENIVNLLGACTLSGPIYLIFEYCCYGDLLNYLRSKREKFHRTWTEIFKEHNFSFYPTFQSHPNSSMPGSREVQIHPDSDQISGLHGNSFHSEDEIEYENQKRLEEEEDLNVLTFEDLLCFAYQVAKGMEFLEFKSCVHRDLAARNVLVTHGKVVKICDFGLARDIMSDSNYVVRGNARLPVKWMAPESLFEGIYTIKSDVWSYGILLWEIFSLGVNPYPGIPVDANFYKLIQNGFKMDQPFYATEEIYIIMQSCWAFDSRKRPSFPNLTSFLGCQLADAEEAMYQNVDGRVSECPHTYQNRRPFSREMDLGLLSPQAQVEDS
Sequence of Receptor tyrosine-protein kinase erbB-2 (Homo sapiens) (P04626 whole entry): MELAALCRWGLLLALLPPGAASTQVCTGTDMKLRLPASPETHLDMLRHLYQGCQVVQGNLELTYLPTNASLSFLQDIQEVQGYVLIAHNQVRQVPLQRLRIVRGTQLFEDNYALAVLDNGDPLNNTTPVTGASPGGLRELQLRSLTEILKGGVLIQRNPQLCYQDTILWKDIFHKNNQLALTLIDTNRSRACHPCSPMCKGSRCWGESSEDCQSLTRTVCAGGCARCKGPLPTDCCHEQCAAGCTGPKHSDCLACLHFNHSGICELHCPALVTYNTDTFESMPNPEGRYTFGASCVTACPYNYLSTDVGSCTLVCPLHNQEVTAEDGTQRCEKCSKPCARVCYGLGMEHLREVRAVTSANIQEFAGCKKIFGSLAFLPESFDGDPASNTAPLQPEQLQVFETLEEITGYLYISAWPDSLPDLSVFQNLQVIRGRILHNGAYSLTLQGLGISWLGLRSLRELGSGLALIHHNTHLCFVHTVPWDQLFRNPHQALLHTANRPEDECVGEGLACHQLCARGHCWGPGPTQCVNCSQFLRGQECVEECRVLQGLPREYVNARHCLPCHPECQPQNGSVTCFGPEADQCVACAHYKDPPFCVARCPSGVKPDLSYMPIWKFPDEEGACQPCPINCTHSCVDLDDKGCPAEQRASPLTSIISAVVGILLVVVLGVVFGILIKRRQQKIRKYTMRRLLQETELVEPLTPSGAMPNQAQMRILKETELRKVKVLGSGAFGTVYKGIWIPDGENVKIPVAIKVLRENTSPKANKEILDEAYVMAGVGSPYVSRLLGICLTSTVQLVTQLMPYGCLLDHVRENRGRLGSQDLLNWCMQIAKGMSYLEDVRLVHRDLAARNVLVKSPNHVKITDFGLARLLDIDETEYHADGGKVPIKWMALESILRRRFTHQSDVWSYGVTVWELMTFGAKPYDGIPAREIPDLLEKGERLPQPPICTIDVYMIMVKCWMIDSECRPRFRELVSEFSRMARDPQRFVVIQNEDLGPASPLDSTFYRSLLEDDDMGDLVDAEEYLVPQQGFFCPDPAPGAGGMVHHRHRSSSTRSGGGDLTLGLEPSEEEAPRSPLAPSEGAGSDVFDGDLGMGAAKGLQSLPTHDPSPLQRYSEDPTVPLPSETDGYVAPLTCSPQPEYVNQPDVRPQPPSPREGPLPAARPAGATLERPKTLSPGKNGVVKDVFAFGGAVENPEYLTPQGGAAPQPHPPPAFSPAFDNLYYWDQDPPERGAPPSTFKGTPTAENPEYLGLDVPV
Sequence of Vascular endothelial growth factor receptor 2 (Homo sapiens) (P35968 whole entry): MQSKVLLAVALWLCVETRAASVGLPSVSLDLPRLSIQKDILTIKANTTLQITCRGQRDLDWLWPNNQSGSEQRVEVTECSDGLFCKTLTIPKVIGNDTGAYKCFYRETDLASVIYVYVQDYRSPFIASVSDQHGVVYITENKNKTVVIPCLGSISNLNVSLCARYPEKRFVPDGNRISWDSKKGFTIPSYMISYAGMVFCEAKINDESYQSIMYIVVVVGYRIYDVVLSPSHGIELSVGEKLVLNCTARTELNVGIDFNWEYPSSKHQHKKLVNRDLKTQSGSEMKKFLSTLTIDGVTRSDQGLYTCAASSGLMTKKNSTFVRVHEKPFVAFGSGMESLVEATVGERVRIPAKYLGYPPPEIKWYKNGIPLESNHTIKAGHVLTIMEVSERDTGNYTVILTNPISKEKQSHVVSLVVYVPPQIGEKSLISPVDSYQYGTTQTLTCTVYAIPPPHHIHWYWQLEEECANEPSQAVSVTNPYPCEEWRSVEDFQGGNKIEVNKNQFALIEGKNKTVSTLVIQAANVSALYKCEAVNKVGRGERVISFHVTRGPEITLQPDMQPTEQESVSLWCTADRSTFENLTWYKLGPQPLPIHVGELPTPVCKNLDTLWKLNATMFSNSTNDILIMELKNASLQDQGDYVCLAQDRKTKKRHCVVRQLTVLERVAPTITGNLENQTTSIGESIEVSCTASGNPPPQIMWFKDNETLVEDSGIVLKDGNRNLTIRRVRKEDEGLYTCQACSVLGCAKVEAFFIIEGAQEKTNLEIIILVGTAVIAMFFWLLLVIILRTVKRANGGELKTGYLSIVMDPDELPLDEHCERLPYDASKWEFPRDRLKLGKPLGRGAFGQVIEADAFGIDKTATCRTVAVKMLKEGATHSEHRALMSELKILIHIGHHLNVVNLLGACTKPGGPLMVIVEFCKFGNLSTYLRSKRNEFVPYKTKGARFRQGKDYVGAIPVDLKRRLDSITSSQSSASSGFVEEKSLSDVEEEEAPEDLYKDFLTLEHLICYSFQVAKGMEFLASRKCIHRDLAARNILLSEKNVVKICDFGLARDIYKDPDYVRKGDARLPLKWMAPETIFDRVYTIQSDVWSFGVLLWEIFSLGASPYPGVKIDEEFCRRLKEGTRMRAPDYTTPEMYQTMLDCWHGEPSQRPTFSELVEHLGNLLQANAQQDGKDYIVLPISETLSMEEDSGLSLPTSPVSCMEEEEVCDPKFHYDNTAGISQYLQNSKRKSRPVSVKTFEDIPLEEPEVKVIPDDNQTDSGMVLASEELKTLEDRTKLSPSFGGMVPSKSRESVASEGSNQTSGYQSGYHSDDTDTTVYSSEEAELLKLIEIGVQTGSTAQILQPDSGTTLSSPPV
Sequence of Mitogen-activated protein kinase 8 (P45983 whole entry): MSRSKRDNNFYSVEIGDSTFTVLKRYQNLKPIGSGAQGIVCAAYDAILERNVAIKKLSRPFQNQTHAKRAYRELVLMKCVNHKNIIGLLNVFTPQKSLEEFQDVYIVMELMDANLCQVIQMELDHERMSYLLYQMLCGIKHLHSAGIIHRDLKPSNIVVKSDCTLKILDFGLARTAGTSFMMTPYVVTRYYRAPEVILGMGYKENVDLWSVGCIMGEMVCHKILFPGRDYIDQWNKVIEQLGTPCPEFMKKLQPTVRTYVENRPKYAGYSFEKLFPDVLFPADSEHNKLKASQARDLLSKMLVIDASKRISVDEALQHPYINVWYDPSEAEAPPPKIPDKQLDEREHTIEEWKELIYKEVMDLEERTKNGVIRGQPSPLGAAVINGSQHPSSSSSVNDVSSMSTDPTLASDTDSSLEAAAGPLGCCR
Sequence of Serine/threonine-protein kinase pim-1 (Homo sapiens) (P11309 whole entry, looked up): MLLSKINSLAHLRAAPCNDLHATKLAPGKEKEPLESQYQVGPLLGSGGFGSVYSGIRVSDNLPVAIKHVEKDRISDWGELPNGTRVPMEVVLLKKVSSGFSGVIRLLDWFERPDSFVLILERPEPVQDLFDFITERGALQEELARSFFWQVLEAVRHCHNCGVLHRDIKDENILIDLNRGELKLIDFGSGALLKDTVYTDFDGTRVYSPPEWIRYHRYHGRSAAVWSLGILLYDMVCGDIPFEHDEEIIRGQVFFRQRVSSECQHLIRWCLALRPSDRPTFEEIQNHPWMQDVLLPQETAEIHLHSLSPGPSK

On to `Cn1c(=O)c(Oc2ccc(F)cc2F)cc2cnc(NC3CCN(S(N)(=O)=O)CC3)nc21`, for which the inhibition in [1] stood at 17%; in experiment [2], 16%; in [3], 18%; in [4] it was 10%; in experiment [5], 9%; in [6], 22%. Further, the inhibition came to 85% in experiment [7]; 4% in experiment [8]; 5% in experiment [9]; 8% in experiment [10]; 11% in [11]; 8% in [12]. The inhibition in experiment [13] was determined as 71%; in experiment [14], 9%; in experiment [15] it was 6%; in [16], 4%; in experiment [17], 13%; in [18] it was 14%. The inhibition in experiment [19] came to 10%; in [20], 9%; in experiment [22], 96%. The inhibition entry in experiment [21] is “inactive”.
